Experiments:
4T1-Luc cells = test: Dry ice assay: binding to dead cells or uptake by living cells; assay type: cell-based, mouse; settings: dry-ice killed 4T1-Luc cells in the center of the wells, 15 min at 37° C.
Experimental: 4T1-Luc cells were seeded onto individual wells from a 12-well cell culture plate and allowed to grow to confluence in RPMI media supplemented with 10% fetal bovine serum. 4T1-luc2 mouse breast cancer cells were used as the adherence of these cells to the bottom of the culture well remains strong after dry-ice treatment. To initiate cryo-induced cell death, media was discarded and dry-ice was applied to the bottom center of each individual well for 15 sec. Subsequently, fresh medium with different concentrations of the first compound of the invention were added and cells were incubated at 37° C. for 15 min. After incubation, the media were discarded and the cells were washed twice with serum free medium and 0.5 ml fresh RPMI was added to each well. Cells were then visualized using a Licor Odyssey equipped with 700 and 800 nm diode laser. Luciferin ([…]) was also added to each well and fluorescence and bioluminescence images were acquired using an IVIS Spectrum (fluorescence: excitation filter: 710 nm, emission filter: 820 nm, exposure time: 90 s, bin: 8, f/stop: 2, field of view: 12.9 cm) (bioluminescence: open filter, exposure time: 30 s, bin: 8, f/stop: 1, field of view: 12.9 cm). Some culture wells were also stained for 15 min with Trypan Blue (0.2% in culture medium) to confirm cell death.

intracellular proteins = test: Identification of intracellular proteins that bind HQ5 (lysate incubated with dye); assay type: binding; settings: lysate incubated with HQ5 and CW800
Experimental: FIG. 12 relates to identification of intracellular proteins that bind HQ5. In order to try to identify the protein to which the HQ-dyes bind Lysate is (after pre-treatment) incubated with HQ5 and CW800. Exact protocol and technique not specified. […] A specific HQ5-binding protein has a molecular weight of approx. 40 kD.

injured tissues = settings: Prajapati et al., Mol Imaging 2009; cited from earlier work
4T1 cells = test: Confocal microscopy of Gambogic acid treated 4T1 cells; assay type: cell-based, mouse
Source text: Gambogic acid kills cells leading to membrane disruption. […] Annexin-V-FITC specifically binds to phosphatidyl serine (PS) expressed on the outside of the cell membrane of apoptotic and necrotic cells.
Annexin V, however, can next to late apoptotic and necrotic cells also stain cells in an early stage of apoptosis.

In the case of `CC1(C)C(/C=C/C2=C(Oc3ccc(S(=O)(=O)O)cc3)C(=C/C=C3/N(CCCCS(=O)(=O)O)c4ccc(S(=O)(=O)[O-])cc4C3(C)C)/CCC2)=[N+](CCCCCC(=O)O)c2ccc(S(=O)(=O)O)cc21` [CW800], the “binding to dead cells” value (4T1-Luc cells) is reported as “specifically and dose-dependently bind to dead cells” and the “proteins bound, HQ5 compared with CW800” value (intracellular proteins) is reported as “share some but also have different proteins they bind with”.

In the case of `CC1(C)C(=CC=C2CCCC(C=CC3=[N+](CCCCS(=O)(=O)[O-])c4ccc5ccccc5c4C3(C)C)=C2Cl)N(CCCCS(=O)(=O)[O-])c2ccc3ccccc3c21.[Na+]` [IR-820], the blood pool behaviour (injured tissues) is given as “is a blood pool agent that just simply leaks out of blood vessels after disruption of the vessels”.

B1: Annexin V: binds phosphatidyl serine on the outside of the membrane of apoptotic and necrotic cells (protein, UniProt P08758 2-320, looked up)
Annexin A5: AQVLRGTVTDFPGFDERADAETLRKAMKGLGTDEESILTLLTSRSNAQRQEISAAFKTLFGRDLLDDLKSELTGKFEKLIVALMKPSRLYDAYELKHALKGAGTNEKVLTEIIASRTPEELRAIKQVYEEEYGSSLEDDVVGDTSGYYQRMLVVLLQANRDPDAGIDEAQVEQDAQALFQAGELKWGTDEEKFITIFGTRSVSHLRKVFDKYMTISGFQIEETIDRETSGNLEQLLLAVVKSIRSIPAYLAETLYYAMKGAGTDDHTLIRVMVSRSEIDLFNIRKEFRKNFATSLYSMIKGDTSGDYKKALLLLCGEDD
modifications: FITC label
For B1, the “number of cells stained” value (4T1 cells) was “stains a larger number of cells than both HQ5 and EtD”.

Source: patent US10641771B2, “Protein target complex” (HQ Medical Netherlands B.V., priority 2012, dated 2020)
